From patent US20230277553A1, “THERAPEUTIC COMPOSITION OF CURE-PRO COMPOUNDS FOR TARGETED DEGRADATION OF BET DOMAIN PROTEINS, AND METHODS OF MAKING AND USAGE” (CORNELL UNIVERSITY, priority 2020, published 2023)
Entries after “also recorded” stand apart in the source; their conditions may differ.

Columns and labels:
SLC19A1 = assay: Suppression of c-MYC downstream target gene SLC19A1, RT-PCR (Cells-to-Ct), HeLa cells; type: cell-based, Human; conditions: 24 h, 10 μM
Description: The suppression of the expression of the downstream c-MYC target, SLC19A1, was measured by RT-PCR using Power SYBR© Green Cells-to-Ct™ Kit (Life Technologies). Adherent cells were plated on 96 well plates at 5,000 cells per well were treated for 24h with monomer compounds and compounds capable of reversible interactions (1 nM-100 μM). Cells were subsequently washed in ice-cold PBS processed according to the manufacturer's instructions. Quantitative real-time PCR was performed using a ViiA™ 7 Real-time PCR System (Applied Biosystems, Foster City, Calif., USA). GAPDH and ACTB served as internal controls. The primers used were (5′-3′): GAPDH-F: AGCCACATCGCTCAGACAC (SEQ ID NO:9), GAPDH-R: GCCCAATACGACCAAATCC (SEQ ID NO:10), ACTB —F: CCAACCGCGAGAAGATGA (SEQ ID NO: 11), ACTB -R: […] (SEQ ID NO: 12), SLC19A1-F: […] (SEQ ID NO:13), SLC19A1-R: […] (SEQ ID NO: 14).
HeLa cells (1×104) were treated for 24 hours in 96 well plates with the compounds solubilized in DMSO. Compounds were added at 10 μM each and RNA expression measured by the Cells-to Ct method described above (Thermofisher). CURE-PRO-mediated suppression of the downstream target gene of c-MYC, SLC19A1, after BRD4 degradation was evident in cells treated with the combination of BRD-N25 and 8310 or 8312 (FIG. 66) and BRD-N39 and 8310 and 8312 (FIG. 67) as indicated by a rightward shift in the curve and in increase in the Ct values.

MV-4-11 cells = assay: CellTiter-Glo cell viability, MV-4-11 cells; type: cell-based
Description: CellTiter-Glo® 2.0 Cell Viability Assay (Promega) was carried out following the manufacturer's recommendations. Cells were seeded at a density of 1000 cells/well in a white 96 well plates (Corning, #3917) in a total volume of 100 μl with respective monomers, combinations of BRD ligands together with E3 ligase ligands or vehicle control treatment. After a 72 h incubation, 100 ul of the CellTiter-Glo® substrate was added per well and luminescence was read on a Spectramax M5 (Molecular Devices). Dose-response curves were generated using Graphpad Prism software.
MV-4-11 cells (5×104) were treated for 24 hours with the sample compounds solubilized in DMSO. The compounds were added at 1 nM-100 μM each. Cellular viability was determined using the CellTiter-Glo® Luminescent Cell Viability Assay (Promega) described above. FIGS. 19-22 depict the CURE-PRO-mediated loss of cellular viability for BRD monomers (JQ1 derivatives comprising of catechol linkers), and CRBN ligand, 8049 (pomalidomide derivatives comprising boronic acid linkers) combined in a 1:1 ratio.
MV-4-11 cells (1×104) were treated for 72 hours with the compounds solubilized in DMSO. Compounds were added at 10 nM-100 μM each. Cellular viability was determined using the CellTiter-Glo® Luminescent Cell Viability Assay (Promega) described above. FIGS. 47-54 depict the CURE-PRO-mediated loss of cellular viability for BRD monomers (JQ1 derivatives comprising of boronic acid linkers), and CRBN ligands, 8046, 8047 and 8066 (pomalidomide derivatives comprising diol linkers) combined in a 1:1 ratio.

BRD4 [1] = target: T1, BRD4 (Homo sapiens, UniProt O60885); assay: CURE-PRO-mediated BRD4 degradation, Western blot, HeLa cells; type: cell-based; parameters: endogenous in cells; host or cells: HeLa
Procedure, shortened: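 HeLa cells treated 24 h with compounds in DMSO (1-10 μM, 10 μM or 100 μM each; paired monomers combined 1:1), optional 15-min pretreatment with pomalidomide, VHL298, Nutlin3a (10 μM) or MG-132/carfilzomib (1 μM). RIPA lysates, 10-20 μg protein immunoblotted for BRD4 with β-actin, ECL detection.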

BRD4 [2] = target: T1, BRD4; assay: Summary of BRD4 degradation by CURE-PRO pairs, estimated from Western Blot or WES (Proteinsimple); type: cell-based; parameters: endogenous in cells
Text: A black check mark indicates efficacy of 30% to 70% or higher protein degradation.

BRD4 [3] = target: T1, BRD4; assay: CURE-PRO-mediated BRD4 degradation, WES (ProteinSimple), HeLa cells; type: cell-based; parameters: endogenous in cells; host or cells: HeLa; conditions: 24 h, tested 100 nM-10 μM each
Description: All cell lines were purchased from ATCC or DSMZ and grown at 37° C. with 5% CO2. Human HeLa cells were cultured in complete growth medium (Dulbecco's modified Eagle's medium (DMEM) supplemented with 10% FBS); MCF7 cells were cultured in complete growth medium (Dulbecco's modified Eagle's medium (DMEM) supplemented with 10% FBS and 0.01 mg/ml human recombinant insulin (Sigma Aldrich); Namalwa and MOLM-13 cells were cultured in complete growth medium (RPMI 1640 medium supplemented with 10% FBS); MV-4-11 were cultured in complete growth medium (Iscove's Modified Dulbecco's medium, supplemented with 10% FBS); HCT116 cells were cultured in complete growth medium (McCoy's 5a Medium supplemented with 10% FBS). For cellular degradation of BRD4 studies, cells were seeded in a 12-well plate at 70-80% confluency, allowed to attach overnight, and incubated with the indicated compounds for the indicated time. When indicated, a 15-minute pretreatment with 10 μM pomalidomide, 10 μM VHL298, 10 μM Nutlin3a, 1 μM MG-132 or 1 μM Carfilzomib was performed before the addition of CURE-PROs. For washout studies, after CURE-PRO treatment, media was aspirated and incubated with complete medium for the indicated time before lysis.
Anti-BRD4 (13440, 1:1,000 dilution for Western Blot and 1:25 dilution for ProteinSimple); Anti-BRD2 (5848 1:1,000 dilution for Western Blot and 1:25 dilution for ProteinSimple); β-Actin (3700, 1:2,000 dilution for Western Blot), β-Actin (4970, 1:50 dilution for ProteinSimple) anti-mouse IgG-HRP, and anti-rabbit IgG-HRP antibodies were purchased Cell Signaling Technology. Anti-GAPDH (600-401-A33, 1:100 dilution for ProteinSimple) was purchased from Rockland Immunochemicals, Inc. Anti-BRD3 (sc-81202, 1:200 dilution for Western Blot) was purchased from Santa Cruz Biotechnology.
WES Simple analysis was performed on WES system (ProteinSimple-Biotechne) according to the manufacturer's instructions. Total protein concentrations of cell lysates were determined by the Pierce BCA kit (Thermo Fisher). 3 μL of 0.3 μg/μL of the protein lysate was loaded onto a 12- to 230-kDa WES assay plate (ProteinSimple) where 300 nL sample was withdrawn through a capillary, subjected to electrophoretic separation of proteins by size, and followed by the simultaneous, HRP-based detection of proteins using the Anti-Rabbit Detection Module (Proteinsimple: #DM-001). The electropherograms were checked then the automatic peak detection was manually corrected if it was required.
HeLa cells (2.5×10^6) were treated for 4-24 hours with the compounds solubilized in DMSO. After 4 hours, indicated points were washed and cells were left in full growth media. Compounds were added at 10 μM each. […]

Cc1sc2c(c1C)C(c1ccc(Cl)cc1)=N[C@@H](CC(=O)Nc1ccc(OCCOCCOCCOCCNc3cccc4c3C(=O)N(C3CCC(=O)NC3=O)C4=O)cc1)c1nnc(C)n1-2 (some centres unmarked) [ARV-825, reference compound]
Suppression of SLC19A1 expression, single compound (SLC19A1): Complete suppression of SLC19A1 was evident; also recorded: completely suppressed

COc1ccc2c(c1)C(c1ccc(Cl)cc1)=N[C@@H](CC(=O)NCCc1ccc(O)c(O)c1)c1nnc(C)n1-2 [BRD-N10, (S)-2-(6-(4-chlorophenyl)-8-methoxy-1-methyl-4H-benzo[f][1,2,4]triazolo[4,3-a][1,4]diazepin-4-yl)-N-(3,4-dihydroxyphenethyl)acetamide]
Loss of cellular viability / toxicity, co-dosed with CRBN ligand 8049 (MV-4-11 cells; MV-4-11, 24 hours, 1:1 with 8049, 1 nM-100 μM each): concentration-dependent loss in cellular viability; also recorded: increased toxicity | BRD4 degradation, co-treatment with CRBN ligand 8048 (BRD4 [1]; 24 h, 1:1 with 8048, 1-10 μM each, Western blot): causes degradation of BRD4; also recorded: capable of degrading BRD4 | BRD4 degradation, BRD ligand alone (BRD4 [1]; 24 h, BRD monomer alone, Western blot): no degradation of BRD4 | Degradation of BRD4 in combination with CRBN ligand [drawing 407] (BRD4 [2]; Table 4, aryl-boronic acid-containing CRBN ligand, first drawing (by text: 8048)): ✓ (A black check mark indicates efficacy of 30% to 70% or higher protein degradation) | Degradation of BRD4 in combination with CRBN ligand [drawing 408] (BRD4 [2]; Table 4, aryl-boronic acid-containing CRBN ligand, second drawing (by text: 8049)): ✓ (A black check mark indicates efficacy of 30% to 70% or higher protein degradation) | Degradation of BRD4 in combination with MDM2 ligand [drawing 423] (BRD4 [2]; Table 5, aryl-boronic acid-containing MDM2 ligand, first drawing (8310)): ✓ (A black check mark indicates efficacy of 30% to 70% or higher protein degradation)

CCNC(=O)C[C@@H]1N=C(c2ccc(Sc3ccccc3)cc2)c2cc(OC)ccc2-n2c(C)nnc21 [BRD-E52C, N-ethyl-2-((4S)-8-methoxy-1-methyl-6-(4-(phenylthio)phenyl)-4H-benzo[f][1,2,4]triazolo[4,3-a][1,4]diazepin-4-yl)acetamide]
Concentration at which BRD4 degradation is induced, with 8047 (WES) (BRD4 [3]): > 10 µM

Nc1cccc2c1C(=O)N(C1CCC(=O)NC1=O)C2=O (centres unmarked) [pomalidomide, reference compound]
Suppression of SLC19A1 expression, single compound (SLC19A1): no suppression | Inhibition of CURE-PRO-mediated BRD4 degradation (BRD-E52 or BRD-E72 with 8047) by preincubation (BRD4 [1]; 15 min preincubation, equimolar (10 μM)): competitively inhibited; also recorded: inhibition of CURE-PRO-mediated BRD4 degradation

COc1ccc2c(c1)C(c1ccc(Cl)cc1)=N[C@@H](CC(=O)NCCNC(=O)/C=C/c1ccc(B(O)O)cc1)c1nnc(C)n1-2 [BRD-E29, (4-((E)-3-((2-(2-((4S)-6-(4-chlorophenyl)-8-methoxy-1-methyl-4H-benzo[f][1,2,4]triazolo[4,3-a][1,4]diazepin-4-yl)acetamido)ethyl)amino)-3-oxoprop-1-en-1-yl)phenyl)boronic acid]
Loss of cellular viability / toxicity, cotreated with cereblon ligands 8046, 8047 and 8066 vs monomers alone (MV-4-11 cells; MV-4-11, 72 hours, 1:1, 10 nM-100 μM each): reduced viability; also recorded: increased toxicity | BRD4 degradation, co-treatment with CRBN ligand 8046 (BRD4 [1]; 24 h, 1:1 with 8046, 10 μM each, Western blot): causes degradation of BRD4; also recorded: Degradation is noted | BRD4 degradation, co-treatment with CRBN ligand 8047 (BRD4 [1]; 24 h, 1:1 with 8047, 10 μM each, Western blot): causes degradation of BRD4; also recorded: Degradation is noted | BRD4 degradation, co-treatment with CRBN ligand 8066 (BRD4 [1]; 24 h, 1:1 with 8066, 10 μM each (BRD-E10: 10 and 100 μM), Western blot): causes degradation of BRD4; also recorded: Degradation is noted | Degradation of BRD4 in combination with CRBN ligand [drawing 371] (BRD4 [2]; Table 1, CRBN ligand, second drawing (8047)): ✓ (A black check mark indicates efficacy of 30% to 70% or higher protein degradation) | Degradation of BRD4 in combination with CRBN ligand [drawing 372] (BRD4 [2]; Table 1, CRBN ligand, third drawing (8066)): ✓ (A black check mark indicates efficacy of 30% to 70% or higher protein degradation) | Degradation of BRD4 in combination with CRBN ligand [drawing 370] (BRD4 [2]; Table 1, aromatic 1,2-diol- or hindered cis-1,2-diol-containing CRBN ligand, first drawing (8046)): ✓ (A black check mark indicates efficacy of 30% to 70% or higher protein degradation)
